One block for each compound: values may come before it.
How the values were obtained:
[1] = cited from earlier work
[2] = cited from earlier work; remark: listed apart in the source
[3] = Dissolution of API from ODTs (USP 31 guidelines); assay type: physicochemical; details: 70-80N hardness
Method: Dissolution properties of the ODTs were determined by following USP 31 guidelines for each model APIs. The percent of drug released at predetermined time intervals were calculated and plotted against the sampling time to obtain the release profiles. ODTs that fall within a 70-80N hardness range were studied.

Structure (SMILES): CC(=O)Oc1ccccc1C(=O)O [Aspirin]
- solubility in water (in words) [1]: highly water soluble

- time to full release of API from ODT ([3]; CPM ODTs): ≤ 5 min
Structure (SMILES): CN(C)CC[C@@H](c1ccc(Cl)cc1)c1ccccn1.O=C(O)/C=C\C(=O)O [CPM, Chlorpheniramine Maleate]
- pKa [2]: 9.2

Structure (SMILES): Cn1c(=O)c2nc[nH]c2n(C)c1=O [Theophylline]
- pKa [2]: 8.7
- solubility in water ([1]; neutral distilled water at 25° C.): about 8 mg/mL
- time to full release of API from ODT ([3]; theophylline ODTs): fully released at five minutes

- time to full release of API from ODT ([3]; naproxen ODTs): ≤ 10 min
Structure (SMILES): COc1ccc2cc([C@H](C)C(=O)O)ccc2c1 [Naproxen]

Structure (SMILES): OC[C@@H](O)[C@@H](O)[C@H](O)[C@H](O)CO [Spray dried mannitol, mannitol]
- time in which 5 g dissolves in 150 mL of water ([1]; at 20° C.): approximately 5 sec

- time to full release of API from ODT ([3]; acetaminophen ODTs): ≤ 10 min
Structure (SMILES): CC(=O)Nc1ccc(O)cc1 [Acetaminophen]
- pKa [2]: 9.2
- solubility in water (in words) [1]: highly water soluble

From patent publication US20110105441A1, “Stable Orally Disintegrating Tablets Having Low Superdisintegrant” (FMC CORPORATION, priority 2009, published 2011)
